Where “and” joins values, the source holds several entries; their conditions need not be identical. Identical values can stand only once.
System: C. elegans
Conditions: Table S2, C. elegans SS assay, 110 μM, averages of 4 data points

SMILES | Percentage of motility inhibition 0 h | Percentage of motility inhibition 24 h
C/C1=C\C(=O)c2c(C)coc2C/C(C)=C/CC1 [Furanodienone] | 0% | 0%
CC(=O)O[C@H]1C[C@@]2(C)[C@@H](C[C@@H](O)[C@H]3[C@@]4(C)CC[C@@H](O)[C@@H](C)[C@@H]4CC[C@@]32C)/C1=C(\CCC=C(C)C)C(=O)[O-].[Na+] [Fusidic acid (sodium salt)] | – | 35% and 44%
C/C=C1/[C@H](O[C@@H]2O[C@H](CO)[C@@H](O)[C@H](O)[C@H]2O)OC=C(C(=O)OC)[C@H]1CC(=O)OC[C@H]1O[C@@H](OCCc2ccc(OC(=O)C[C@@H]3C(C(=O)OC)=CO[C@@H](O[C@@H]4O[C@H](CO)[C@@H](O)[C@H](O)[C@H]4O)/C3=C/C)cc2)[C@H](O)[C@@H](O)[C@@H]1O [GL3] | 0% | 18%
CC(C)OC(=O)[C@H](C)N[P@](=O)(CO[C@H](C)Cn1cnc2c(N)ncnc21)Oc1ccccc1.O=C(O)/C=C/C(=O)O [GS‐7340 (fumarate)] | 20% | 8%
CC(C)OC(=O)[C@H](C)N[P@](=O)(CO[C@H](C)Cn1cnc2c(N)ncnc21)Oc1ccccc1.CC(C)OC(=O)[C@H](C)N[P@](=O)(CO[C@H](C)Cn1cnc2c(N)ncnc21)Oc1ccccc1.O=C(O)/C=C/C(=O)O [GS‐7340 (hemifumarate)] | 21% | 0%
Br.COc1ccc2c3c1O[C@H]1C[C@@H](O)C=C[C@@]31CCN(C)C2 [Galanthamine (hydrobromide)] | 2% and 0% | –
COc1ccc2c3c1O[C@H]1C[C@@H](O)C=C[C@@]31CC[N+](C)([O-])C2 (stereo partly drawn) [Galanthamine N‐Oxide] | 3% | 4%
CC(C)=CCN=C(N)N.Cl [Galegine (hydrochloride)] | 0% | 0%
O.O=C(O)c1cc(O)c(O)c(O)c1 [Gallic acid (hydrate)] | 6% | 7%
CCCN1C[C@H](C)[C@@H](O)[C@](C)(O)[C@@H](CC)OC(=O)[C@H](C)[C@@H](O[C@H]2C[C@@](C)(OC)[C@@H](O)[C@H](C)O2)[C@H](C)[C@@H](O[C@@H]2O[C@H](C)C[C@H](N(C)C)[C@H]2O)[C@](C)(O)C[C@H]1C [Gamithromycin] | 37% | 44%
C[C@H](CC(=O)C[C@](C)(O)[C@@H]1CC(=O)[C@@]2(C)C3=C(C(=O)C[C@]12C)[C@@]1(C)CC[C@H](O)C(C)(C)[C@@H]1C[C@@H]3O)C(=O)O [Ganoderic acid I] | 0% | 11%
CC(CC(=O)CC(C)(O)C1CC(=O)C2(C)C3=C(C(=O)CC12C)C1(C)CCC(=O)C(C)(C)C1CC3O)C(=O)O (stereo not drawn) [Ganoderic acid N] | 0% | 0%
CC(CC(=O)CC(C)[C@H]1CC(=O)C2(C)C3=C(C(=O)C(=O)C12C)C1(C)CCC(=O)C(C)(C)[C@@H]1CC3=O)C(=O)O (stereo partly drawn) [Ganosporeric acid A] | 36% | 9%
CCNCc1nc2c(N)nc3ccccc3c2n1CC(C)(C)O.O=C(O)C(F)(F)F [Gardiquimod trifluoroacetate] | 33% | 0%
CS(=O)(=O)O.C[C@H]1NCc2cc(-c3ccc4c(=O)c(C(=O)O)cn(C5CC5)c4c3OC(F)F)ccc21.O [Garenoxacin (Mesylate hydrate)] | 61% | 25%
C/C=C1/CN2CCc3c([nH]c4ccccc34)[C@@H]2C[C@@H]1/C(=C/OC)C(=O)OC [Geissoschizine methyl ether] | 0% | 19%

Reference: article PMC11855827, “High-Throughput Screening of Five Compound Libraries for Anthelmintic Activity and Toxicity Leads to the Discovery of Two Flavonoid Compounds” (International Journal of Molecular Sciences, 2025)
